Measured values from patent US20160251403A1, “PEPTIDE COMBINATIONS AND USES THEREOF IN TREATING DUST MITE ALLERGY” (ALK-ABELLO A/S, priority 2013, published 2016).
Substitutions are numbered along the chain they refer to. pIC50: −log10 of the molar value. No end group written: not given here.

What was measured:
DRB1_1501 = DRB1_1501 (Homo sapiens, UniProt P01903+P01911); experiment: Competitive MHC class II binding assay, DRB1_1501
DRB1_0901 = DRB1_0901 (Homo sapiens, UniProt P01903+P01911, A100R/A103E/D57H/D86V/F55Y/F60I/F76Y/I96F/K127E/L162R/M171V/P40D/Q125H/Q99R/R33Q/R42F/S133A/S66N/T210M/V115G/W38K/Y107V/Y59G/Y89S); experiment: Competitive MHC class II binding assay, DRB1_0901;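 also: displacement of a radiolabeled probe peptide from purified HLA class II protein, bound counts read after two to four days incubation, six concentrations spanning 100,000-fold, unlabeled probe as reference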
DRB1_1302 = DRB1_1302 (Homo sapiens, UniProt P01903+P01911, A100E/A169T/K41T/L162R/M171V/P40S/Q125H/Q178H/Q39Y/Q99D/R42S/S66N/T262R/V115G/W38E/Y61H); experiment: Competitive MHC class II binding assay, DRB1_1302;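 also: purified HLA class II protein incubated two to four days with a radiolabeled reference binder and test peptide at six concentrations over a 100,000-fold range, complex-bound radioactivity counted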
DRB1_0101 = DRB1_0101 (Homo sapiens, UniProt P01903+P01911, A100R/D57E/F55L/F60I/F76Y/I96L/L162R/M171V/P40L/Q125E/R42F/V115G/Y59C); experiment: Competitive MHC class II binding assay, DRB1_0101;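 also: competition against a radiolabeled probe peptide (0.1–1 nM) for purified HLA class II protein over 2–4 days, bound counts read after antibody capture, six competitor levels across 100,000-fold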
DRB1_0401 = DRB1_0401 (Homo sapiens, UniProt P01903+P01911, A100K/A169T/F76Y/I96L/K127E/L162R/M171V/N62H/P40V/Q125Y/R42H/S133A/S149N/S66Y/V115G/V209L/W38E); experiment: Competitive MHC class II binding assay, DRB1_0401
DQA10101-DQB10501 = DQA10101-DQB10501 (Homo sapiens, UniProt P01909+P01920, A157S/A45G/A70V/C70R/D89V/E106S/E118A/E183D/E77G/F83G/G63E/H151Q/H199R/H252R/H253Q/I129T/I235V/I88M/INS77G/K197Q/L107V/L117V/L119Y/L178F/L71W/L74F/L85Q/L91A/L98M/M46L/N214S/P87R/Q116E/Q256R/Q57E/Q76K/R102G/R240Q/R75S/R78G/S102Y/S185I/S41F/S97I/T103A/T109R/T121G/T122I/T172A/T86R/V148I/V68A/V73E/Y34C/Y58G/Y62H); experiment: Competitive MHC class II binding assay, DQA10101-DQB10501; settings: positive binding at cutoff 1000 nM; read-out: HLA-DQA10101-DQB10501
DRB4_0101 = DRB4_0101 (Homo sapiens, UniProt P01903+P13762, G164S); experiment: Competitive MHC class II binding assay, DRB4_0101
DPA10201-DPB10101 = experiment: Competitive MHC class II binding assay, DPA10201-DPB10101; settings: read-out: HLA-DPA10201-DPB10101; positive binding at cutoff 1000 nM
DRB3_0202 = DRB3_0202 (Homo sapiens, UniProt P01903+P79483, A212P/D57E/F66Y/L67A/R103Q/R218S/R40L/S89Y/T80R/V86D/Y55F/Y59H); experiment: Competitive MHC class II binding assay, DRB3_0202
DPA10103-DPB10401 = target: T1, DPA10103-DPB10401 (Homo sapiens, UniProt P04440+P20036); experiment: Competitive MHC class II binding assay, DPA10103-DPB10401
T1 sequence (P20036 29-260): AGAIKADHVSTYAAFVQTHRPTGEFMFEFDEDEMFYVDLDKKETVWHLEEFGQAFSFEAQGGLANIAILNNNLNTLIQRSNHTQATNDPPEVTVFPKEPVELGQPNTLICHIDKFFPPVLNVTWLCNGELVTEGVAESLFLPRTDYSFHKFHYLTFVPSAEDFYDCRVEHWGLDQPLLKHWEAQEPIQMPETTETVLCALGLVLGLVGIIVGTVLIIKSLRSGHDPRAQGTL
T1 sequence (P04440 30-258): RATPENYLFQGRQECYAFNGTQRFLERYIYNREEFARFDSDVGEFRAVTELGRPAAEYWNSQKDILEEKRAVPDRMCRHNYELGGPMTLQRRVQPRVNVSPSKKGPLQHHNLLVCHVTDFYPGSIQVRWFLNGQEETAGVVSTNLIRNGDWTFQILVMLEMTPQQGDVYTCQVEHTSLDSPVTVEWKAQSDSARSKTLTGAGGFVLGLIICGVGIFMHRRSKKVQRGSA

DRB5_0101 = DRB5_0101 (Homo sapiens, UniProt P01903+Q30154); experiment: Competitive MHC class II binding assay, DRB5_0101
DRB1_0405 = DRB1_0405 (Homo sapiens, UniProt P01903+P01911, A100R/A169T/D86S/F76Y/I96L/K127E/L162R/M171V/N62H/P40V/Q125Y/R42H/S133A/S149N/S66Y/V115G/V209L/W38E); experiment: Competitive MHC class II binding assay, DRB1_0405
DRB1_0802 = DRB1_0802 (Homo sapiens, UniProt P01903+P01911, A100R/A103L/A169T/F76Y/H45Y/I96F/K41T/L162R/M171V/P40S/Q125H/Q178H/Q39Y/Q99D/R218S/R42G/S66Y/V115G/W38E); experiment: Competitive MHC class II binding assay, DRB1_0802
DRB1_0701 = DRB1_0701 (Homo sapiens, UniProt P01903+P01911, A100R/A102G/A103Q/D57E/D86V/E43K/F76Y/K127E/L162R/M171V/P40G/Q125H/Q99D/R33Q/R42Y/R54Q/S133A/S66F/T210M/V115G/Y107V/Y59L/Y89S); experiment: Competitive MHC class II binding assay, DRB1_0701;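 also: displacement of a radiolabeled reference peptide from purified HLA class II protein, with complex-bound radioactivity counted after 2–4 days of incubation and six concentrations spanning a 100,000-fold range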
DRB1_0301 = DRB1_0301 (Homo sapiens, UniProt P01903+P01911, A100K/A102G/A103R/A169T/F55Y/I96L/K41T/L162R/M171V/P40S/Q125H/Q178H/Q39Y/R42S/S66N/T106N/T262R/W38E/Y61H); experiment: Competitive MHC class II binding assay, DRB1_0301
DRB3_0101 = DRB3_0101 (Homo sapiens, UniProt P01903+P79483); experiment: Competitive MHC class II binding assay, DRB3_0101
DPA10103-DPB10201 = target: T2, DPA10103-DPB10201 (Homo sapiens, UniProt P04440+P20036, A65V/A84D/A85E/K98E); experiment: Competitive MHC class II binding assay, DPA10103-DPB10201
T2 sequence (P20036 29-260): T1 sequence (P20036 29-260)
T2 sequence (P04440 30-258 A65V/A84D/A85E/K98E): T1 sequence (P04440 30-258) with A36V, A55D, A56E, K69E

DRB1_1201 = DRB1_1201 (Homo sapiens, UniProt P01903+P01911, A100R/A169T/D57E/D86V/F55L/H45Y/K41T/L162R/M171V/P40S/Q125H/Q178H/Q39Y/Q99D/R42G/S66L/T262R/V114A/V67L/W38E/Y59H/Y61H/Y89S); experiment: Competitive MHC class II binding assay, DRB1_1201
DQA10501-DQB10301 = DQA10501-DQB10301 (Homo sapiens, UniProt P01909+P01920); experiment: Competitive MHC class II binding assay, DQA10501-DQB10301
DQA10501-DQB10201 = DQA10501-DQB10201 (Homo sapiens, UniProt P01909+P01920, A45G/A70V/D89A/E106A/E77G/E98D/H199R/L107V/N214S/P84L/P87L/T103K/T109R/T172A/T60S/V78E/V99I/Y58L/Y62S/Y69I/Y79F); experiment: Competitive MHC class II binding assay, DQA10501-DQB10201
DQA10102-DQB10602 = experiment: Competitive MHC class II binding assay, DQA10102-DQB10602; settings: read-out: HLA-DQA10102-DQB10602; positive binding at cutoff 1000 nM
DRB1_1101 = DRB1_1101 (Homo sapiens, UniProt P01903+P01911, A100R/A169T/A87E/I96F/K41T/L162R/M171V/P40S/Q125H/Q178H/Q39Y/Q99D/R42S/S66Y/T262R/V115G/W38E); experiment: Competitive MHC class II binding assay, DRB1_1101
DPA10201-DPB11401 = experiment: Competitive MHC class II binding assay, DPA10201-DPB11401; settings: read-out: HLA-DPA10201-DPB11401; positive binding at cutoff 1000 nM
DPA10202-DPB10501 = target: T3, DPA10202-DPB10501 (Homo sapiens, UniProt P04440+P20036, A42M/A65V/A84E/F191V/F64L/G113D/G114E/K142R/L158P/M116V/M62Q/P115A/Q81R/R125K/T114A/T199I/T259P/V234M); experiment: Competitive MHC class II binding assay, DPA10202-DPB10501; settings: positive binding at cutoff 1000 nM; read-out: HLA-DPA10202-DPB10501
T3 sequence (P04440 30-258 A65V/A84E/F64L/G113D/G114E/M116V/P115A/R125K/T199I/V234M): T1 sequence (P04440 30-258) with F35L, A36V, A55E, G84D, G85E, P86A, M87V, R96K, T170I, V205M
T3 sequence (P20036 29-260 A42M/F191V/K142R/L158P/M62Q/Q81R/T114A/T259P): T1 sequence (P20036 29-260) with A14M, M34Q, Q53R, T86A, K114R, L130P, F163V, T231P

pIC50 (DRB1_1501)	pIC50 (DRB1_0901)	pIC50 (DRB1_1302)	pIC50 (DRB1_0401)	pIC50 (DQA10101-DQB10501)	pIC50 (DRB4_0101)	pIC50 (DRB3_0202)	pIC50 (DPA10103-DPB10401)	pIC50 (DRB5_0101)	pIC50 (DRB1_0405)	pIC50 (DRB1_0802)	pIC50 (DRB1_0701)	pIC50 (DRB1_0301)	pIC50 (DPA10103-DPB10201)	pIC50 (DRB1_1201)	Sequence	other results
> 6.00	> 6.00	> 6.00	> 6.00	> 6.00	> 6.00	> 6.00	> 6.00	> 6.00	> 6.00	> 6.00	> 6.00				ESAYLAYRNQSLDLAE [pep-009]	pIC50 (DRB1_0101): > 6.00; pIC50 (DPA10201-DPB10101): > 6.00
> 6.00	> 6.00	> 6.00	> 6.00			> 6.00	> 6.00	> 6.00	> 6.00		> 6.00	> 6.00	> 6.00	> 6.00	IEYIQHNGVVQESYYRYVAR [pep-049]	pIC50 (DRB3_0101): > 6.00; pIC50 (DQA10501-DQB10301): > 6.00; pIC50 (DQA10501-DQB10201): > 6.00; pIC50 (DQA10102-DQB10602): > 6.00; pIC50 (DRB1_1101): > 6.00
> 6.00	> 6.00	> 6.00	> 6.00	> 6.00	> 6.00	> 6.00		> 6.00		> 6.00	> 6.00	> 6.00	> 6.00	> 6.00	QQYDIKYTWNVPKIA [pep-031]	pIC50 (DPA10201-DPB11401): > 6.00; pIC50 (DPA10202-DPB10501): > 6.00
